In patent EP0322748B1, “Antibiotic NK86-0279, process for production of the same and application of the same” (NIPPON KAYAKU KABUSHIKI KAISHA, priority 1987, dated 1989):
Converted amounts (≈) assume the structure as drawn.

Columns and labels:
[1] = test system: vascularization by the Ehrlich ascites tumor cells crude extract; assay: vascularization-inhibitory effect, corneal assay; assay type: in vivo; details: slow-releasing pellet in rabbit cornea, compared with a control group
Protocol: The vascularization-inhibitory effect of the compound of the present invention was examined by corneal assay reported by M.A. Gimbrone et al. (J. National Cancer Inst., 52, 413 (1974)). Namely, the center of the cornea of the eye of a rabbit was incised with a knife at a length of approximately 2 mm to thereby form a pouch. Then a slow-releasing pellet containing 100 µg of a crude extract of Ehrlich ascites tumor cells, which had been preliminarily prepared according to a method proposed by R. Langer et al. (Nature, 263, 797 […]), was introduced into the pouch. Further another slow-releasing pellet containing 0.3 to 81 µg of the compound of the present invention was introduced thereinto so as to contact these pellets with each other. Then the degree of vascularization was observed four, six, eight and ten days after the introduction.

[2] = test system: bovine adrenal capillary endothelial cells; assay: growth-inhibitory effect on endothelial cells, Coulter counter; assay type: cell-based; details: Bos taurus, Endothelial cell, 72 h, three days after the addition
Protocol: The growth-inhibitory effect of the compound of the present invention on endothelial cells was examined. A 96-well plate was inoculated with bovine adrenal capillary endothelial cells at a ratio of 1 x 10⁴ cells per well. One day after the inoculation, the compound of the present invention was added thereto at various concentrations. Cells in each well were counted with a Coulter counter three days after the addition to thereby evaluate the growth-inhibitory effect of the test compound on the capillary endothelial cells. […] Thus the IC₅₀ of the compound of the present invention on the endothelial cells was 0.0003 µg/ml, showing a strong growth-inhibitory effect.

HeLa S₃ cells = assay: growth-inhibitory effect on HeLa S3 culture cells, dye exclusion method; assay type: cell-based; details: Homo sapiens, 72 h, three days after the addition
Protocol: The growth-inhibitory effect of the compound of the present invention on HeLa S₃ culture cells was examined. A 96-well plate was inoculated with HeLa S₃ cells at a ratio of 1.5 x 10³ cells/well and incubated in an incubator at 37°C under 5% CO2 for 24 hours. One day after the inoculation, the compound of the present invention was added to the culture medium at various concentrations. Three days after the addition, cells in each well were counted by the dye exclusion method to thereby evaluate the growth-inhibitory effect of the compound of the present invention at various concentrations on HeLa S₃ cells.

acute toxicity = details: mouse, in vivo, ip; mice
[3] = test system: human colonic cancer cells (SWlll6); assay: growth-inhibitory effect on human colonic cancer cells, dye exclusion method; assay type: cell-based
Protocol: (§1) The growth-inhibitory effects of the compound of the present invention on mouse colonic cancer cells (Colon 26) and human colonic cancer cells (SWlll6) were examined. A 96-well plate was inoculated with mouse colonic cancer cells at a ratio of 1.5 x 10³ cells per well, while another 96-well plate was inoculated with human colonic cancer cells at a ratio of 3.0 x 10³ per well. These cells were incubated in an incubator at 37°C under 5 % CO₂ for 24 hours. Then the compound of the present invention was added thereto at various concentrations. Cells in each well were counted by the dye exclusion method 65 hours and 96 hours after the addition to thereby evaluate the growth-inhibitory effect of the test compound on the mouse colonic cancer cells and that on the human colonic cancer cells.

[4] = test system: mouse colonic cancer cells (Colon 26); assay: growth-inhibitory effect on mouse colonic cancer cells, dye exclusion method; assay type: cell-based
Protocol: as §1

[5] = test system: mosquito culices (a sensitive species); assay: insecticidal action, mortality rate of mosquito larvae; assay type: in vivo
Protocol: The insecticidal action of the compound of the present invention was examined by the following method. • (1) An imago of two-spotted spider mite acarids (a Kelthane-resistant species) was used as a test vermin, and the mortality rate thereof was assayed according to an ordinary method (described on page 327 of "Noyaku Seibutsu Kenteiho" edited by Toyoji Hosotsuji). Specifically, a solution of the compound of the present invention in acetone (0.1 %) was added to 0.5 ml of an aqueous sucrose solution (1 %) to have a predetermined concentration. Ten two-spotted spider mite acarids were released in a vessel (200-ml beaker), and the vessel was covered with a paraffin film. The agent solution prepared above was put on the paraffin film, and another praffin film was put thereon. The beaker was allowed to stand in a thermostatic chamber (20 ± 1°C) for a predetermined period of time, and the life and death of the test vermin was investigated. • (2) A larva of mosquito culices (a sensitive species) was used as a test vermin, and the mortality rate thereof was assayed according to an ordinary method (described on page 109 of "Noyaku Jikkenho I, Sacchuzaihen" published by Soft Science, Inc.). Specifically, 10 ml of well water was placed in a vessel (15-ml Schale), and 5 larvae of mosquito culices (the third stage) were released in the vessel. A solution of the compound of the present invention in acetone (0.1 %) was added thereto so as to have a predetermined concentration. The vessel was allowed to stand in a thermostatic chamber (26 ± 1°C) for a predetermined period of time, and the life and death of the test vermin was investigated.

CCC1C=CC=CCC(C)C(O)C(C)(O)C(=O)C(C)C(O)C(C)C(=O)C(C)C(O)C(C)C=CC(=O)OC2C(C)C(CC1)OC1(OC(CC(C)O)C(C)CC1=O)C2CC (centres unmarked) [NK86-0279]
degree of vascularization ([1]; 1 µg or above): significantly retarded till the fourth day | degree of vascularization ([1]; 1.7 µg or above): till the eighth day | inhibition at 0.000128 µg/mL ([2]; 0.000128 µg/ml, read-out: Groth-inhibitory ratio): 35.4% | inhibition at 0.00064 µg/mL ([2]; 0.00064 µg/ml, read-out: Groth-inhibitory ratio): 63.2% | inhibition at 0.0032 µg/mL ([2]; 0.0032 µg/ml, read-out: Groth-inhibitory ratio): 78.4% | inhibition at 0.016 µg/mL ([2]; 0.016 µg/ml, read-out: Groth-inhibitory ratio): 89.7% | IC50 ([2]; endothelial cells, read-out: IC₅₀): 0.3 ng/mL (≈ 0.366 nM) | IC50 (HeLa S₃ cells; HeLa S₃ cells, read-out: IC₅₀): 2.7 ng/mL (≈ 3.3 nM) | inhibition at 0.00064 µg/mL (HeLa S₃ cells; HeLa, 0.00064 µg/ml, read-out: Growth-inhibitory ratio): 22.9% | inhibition at 0.0032 µg/mL (HeLa S₃ cells; HeLa, 0.0032 µg/ml, read-out: Growth-inhibitory ratio): 53.5% | inhibition at 0.016 µg/mL (HeLa S₃ cells; HeLa, 0.016 µg/ml, read-out: Growth-inhibitory ratio): 61.2% | inhibition at 0.08 µg/mL (HeLa S₃ cells; HeLa, 0.08 µg/ml, read-out: Growth-inhibitory ratio): 73.5% | inhibition at 0.4 µg/mL (HeLa S₃ cells; HeLa, 0.4 µg/ml, read-out: Growth-inhibitory ratio): 81.2% | LD50 (acute toxicity): 1.67 mg/kg | inhibition at 0.0061 µg/mL ([3]; Homo sapiens, SW 1116, SWlll6, 0.0061 µg/ml, read-out: Growth-inhibitory ratio): 33.3% | inhibition at 0.024 µg/mL ([3]; Homo sapiens, SW 1116, SWlll6, 0.024 µg/ml, read-out: Growth-inhibitory ratio): 51.7% | inhibition at 0.098 µg/mL ([3]; Homo sapiens, SW 1116, SWlll6, 0.098 µg/ml, read-out: Growth-inhibitory ratio): 54.6% | inhibition at 0.39 µg/mL ([3]; Homo sapiens, SW 1116, SWlll6, 0.39 µg/ml, read-out: Growth-inhibitory ratio): 53.5% | inhibition at 1.56 µg/mL ([3]; Homo sapiens, SW 1116, SWlll6, 1.56 µg/ml, read-out: Growth-inhibitory ratio): 52.2% | inhibition at 6.25 µg/mL ([3]; Homo sapiens, SW 1116, SWlll6, 6.25 µg/ml, read-out: Growth-inhibitory ratio): 80.8% | inhibition at 25 µg/mL ([3]; Homo sapiens, SW 1116, SWlll6, 25 µg/ml, read-out: Growth-inhibitory ratio): 91.9% | inhibition at 100 µg/mL ([3]; Homo sapiens, SW 1116, SWlll6, 100 µg/ml, read-out: Growth-inhibitory ratio): 90.7% | IC50 ([3]; human colonic cancer cells (SWlll6), read-out: IC₅₀): 21 ng/mL (≈ 25.6 nM) | inhibition at 0.0061 µg/mL ([4]; Mus musculus, Colon 26, 0.0061 µg/ml, read-out: Growth-inhibitory ratio): 84.6% | inhibition at 0.024 µg/mL ([4]; Mus musculus, Colon 26, 0.024 µg/ml, read-out: Growth-inhibitory ratio): 87.5% | inhibition at 0.098 µg/mL ([4]; Mus musculus, Colon 26, 0.098 µg/ml, read-out: Growth-inhibitory ratio): 86.1% | inhibition at 0.39 µg/mL ([4]; Mus musculus, Colon 26, 0.39 µg/ml, read-out: Growth-inhibitory ratio): 87.6% | inhibition at 1.56 µg/mL ([4]; Mus musculus, Colon 26, 1.56 µg/ml, read-out: Growth-inhibitory ratio): 94.2% | inhibition at 6.25 µg/mL ([4]; Mus musculus, Colon 26, 6.25 µg/ml, read-out: Growth-inhibitory ratio): 105% | inhibition at 25 µg/mL ([4]; Mus musculus, Colon 26, 25 µg/ml, read-out: Growth-inhibitory ratio): 108% | inhibition at 100 µg/mL ([4]; Mus musculus, Colon 26, 100 µg/ml, read-out: Growth-inhibitory ratio): 104% | IC50 ([4]; mouse colonic cancer cells (Colon 26), read-out: IC₅₀): < 6.1 ng/mL | mortality at 1 ppm ([5]; 48 h, after 2 days): 0% | mortality at 10 ppm ([5]; 48 h, after 2 days): 100% | mortality at 1 ppm ([5]; 144 h, 6 days): 0% | mortality at 10 ppm ([5]; 144 h, 6 days): 100% | mortality at 1 ppm ([5]; 216 h, 9 days): 0% | mortality at 10 ppm ([5]; 216 h, 9 days): 100%
